Reference: publication PMC5610242, “Stapled peptide inhibitors of RAB25 target context-specific phenotypes in cancer” (Nature Communications, 2017)
Bridge positions count the residues as written; N and C are the ends. Square brackets hold non-standard residues; d marks the D form. Ends that are not written are not given here. Peptide text beside a SMILES is read from it. * marks the point of attachment. FITC = O=C1OC2(c3ccc(O)cc3Oc3cc(O)ccc32)c2ccc(NC(=S)*)cc21; monoethylene glycol = monoethylene glycol moiety; Met(O) = CS(=O)CC[C@H](N)C(=O)O; S5 = C=CCCC[C@](C)(N)C(=O)O; Nle = CCCC[C@H](N)C(=O)O; PEG = not defined here; βAla = NCCC(=O)O

T1: H6-RAB25:bio-RFP14 complex (Homo sapiens, UniProt P57735)
T1 construct: His6-RAB25 (1–180) in pET28; made in house; host or cells: E. coli BL21
T1 sequence (P57735 1-180): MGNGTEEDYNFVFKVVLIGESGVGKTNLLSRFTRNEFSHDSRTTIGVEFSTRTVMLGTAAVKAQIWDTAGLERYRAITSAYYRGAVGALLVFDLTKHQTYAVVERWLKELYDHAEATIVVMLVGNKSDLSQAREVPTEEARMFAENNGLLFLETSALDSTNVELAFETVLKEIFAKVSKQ

T2: RAB25 (Homo sapiens, UniProt P57735)
T2 construct: GST-RAB25 (1–180) in pET41 Ek/LIC; made in house; host or cells: E. coli BL21
T2 sequence (P57735 1-180): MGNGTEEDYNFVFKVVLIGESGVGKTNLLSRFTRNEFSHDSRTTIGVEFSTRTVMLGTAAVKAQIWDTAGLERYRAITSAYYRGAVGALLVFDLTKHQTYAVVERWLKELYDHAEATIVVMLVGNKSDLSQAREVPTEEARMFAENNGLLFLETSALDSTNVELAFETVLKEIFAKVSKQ

T3: RAB11a (activated Q70L mutant) (Homo sapiens, UniProt P62491, Q70L)
T3 construct: GST-RAB11a (1–173, Q70L mutant) in pGEX5x-1; made in house; host or cells: E. coli BL21
T3 sequence (P62491 1-173 Q70L): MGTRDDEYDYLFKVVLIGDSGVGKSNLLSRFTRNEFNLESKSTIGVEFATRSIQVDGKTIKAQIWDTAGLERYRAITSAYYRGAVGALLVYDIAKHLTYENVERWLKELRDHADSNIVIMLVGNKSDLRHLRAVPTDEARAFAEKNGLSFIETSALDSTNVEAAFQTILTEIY

T4: His6-RAB25 (1–180) (UniProt P57735 1-180)
T4 construct: RAB25, residues 1-180; vector pET28; also called H6-RAB25; His6-labeled RAB25; source: BL21 cells, purified (Ni-NTA, Superdex 75 gel filtration)
T4 sequence (looked up): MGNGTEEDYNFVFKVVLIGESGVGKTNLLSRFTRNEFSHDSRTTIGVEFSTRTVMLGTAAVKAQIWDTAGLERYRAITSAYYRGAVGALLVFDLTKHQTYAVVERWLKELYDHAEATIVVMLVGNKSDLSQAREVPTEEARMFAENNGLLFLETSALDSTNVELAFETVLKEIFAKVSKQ

T5: His6-RAB25 (1–180) (UniProt P57735 1-180)
T5 chain: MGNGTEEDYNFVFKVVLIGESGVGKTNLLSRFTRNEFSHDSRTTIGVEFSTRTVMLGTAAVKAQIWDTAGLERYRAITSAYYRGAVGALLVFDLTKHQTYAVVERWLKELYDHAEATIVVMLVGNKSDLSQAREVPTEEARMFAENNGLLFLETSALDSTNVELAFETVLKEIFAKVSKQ

T6: GST-RAB11a (1–173, Q70L mutant) (UniProt P62491 1-173, Q70L)
T6 construct: vector pGEX5x-1; 10 μM GTP in the assay buffer; source: BL21 cells, purified (glutathione sepharose, Superdex 75 gel filtration)
T6 sequence (looked up): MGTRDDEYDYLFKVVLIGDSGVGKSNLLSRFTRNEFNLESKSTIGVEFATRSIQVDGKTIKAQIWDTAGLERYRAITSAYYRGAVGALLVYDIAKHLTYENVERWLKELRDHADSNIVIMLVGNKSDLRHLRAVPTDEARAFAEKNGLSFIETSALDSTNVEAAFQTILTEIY


How the values were obtained:
[1] = biological target: T1, H6-RAB25:bio-RFP14 complex; assay: ALPHAscreen competitive inhibition of RAB25:RFP14 complex formation; assay type: binding; conditions: H6-RAB25 0.2 μM and bio-RFP14 0.2 μM, mean with 95% C.I., triplicate
RAB25 = biological target: T2, RAB25; assay: Fluorescence polarization binding of FITC-labeled RFP peptides to RAB25; conditions: FP, 30 min room temperature; for Kd: 10 nM FITC-ligand, GST-RAB25, FP buffer pH 8.0 with 10 μM GTP, mean with 95% C.I., triplicate, read-out: apparent Kd (95% C.I.) RAB25; for binding to RAB25 (in words): 25 nM FITC-RFP peptide
Protocol: (§1) Fluorescence polarization assays were performed with for GST-RAB25 and GST-RAB11a to quantify binding to FITC-labeled unmodified and stapled RFP peptides. Initial fluorescence polarization measurements for RFP1−RFP13 were made by incubating FITC-RFP peptides (25 nM) with threefold dilutions of a given protein in FP buffer, consisting of 20 mM Tris pH 8.0, 150 mM NaCl, 5 mM MgCl2, 2 mM DTT, 10 μM GTP and 2% glycerol. Dilutions and incubations were performed in 96-well, black flat-bottom plates (Nunc) to a total volume of 100 μL, and equilibrated at room temperature for 30 min. Polarization was measured on a Spetramax-M5 multi-label plate reader (Molecular Devices) with λ ex = 485 nm and λ em = 525 nm. Polarization values were determined using the equation: P = (V − H)/(V + H), where P denotes polarization, V denotes vertical emission intensity and H represents horizontal emission intensity. Fraction bound was calculated using the equilibrium maximum polarization value obtained for a given protein among ligands, to which background-subtracted fluorescence polarization values were internally normalized. Fluorescence polarization measurements for FITC-RFP14, 24, 26, 31, and 32 were performed as detailed above with the exception that 10 nM FITC-ligand was used.

[2] = biological target: T3, RAB11a (activated Q70L mutant); assay: Fluorescence polarization binding of FITC-labeled RFP peptides to RAB11a; conditions: FP, 30 min room temperature; for binding to RAB11a (in words): 25 nM FITC-RFP peptide
Protocol: as §1

MCF7 cells = assay: Confocal fluorescence microscopy for peptide cellular penetration; assay type: in vitro ADME; conditions: 5 μM FITC-labeled peptide, 10% FBS-containing RPMI, 8 h, 37 °C
Protocol: MCF7 cells were grown in 8-well chamber slides (Ibidi) and treated with FITC-labeled RFPs (5 μM) in 10% FBS-containing RPMI for 8 h at 37 °C. Cells were washed 5× in PBS, fixed in 2% paraformaldehyde/PBS and stained with DAPI according to the manufacturer’s protocol (Sigma). A coverslip was mounted onto the slide and confocal fluorescence microscopy performed with an Olympus DSU spinning disk confocal microscope (Olympus Corporation of the Americas, Center Valley, PA) with a Hamamatsu model C9100 EM-CCD camera (Hamamatsu Photonics, Skokie, IL) run by SlideBook v5.0 software (Intelligent Imaging Innovations, Denver, CO). Post-acquisition processing (multi-channel overlay) was performed using ImageJ software (NIH). Results are representative of images taken from three fields across the same well in at least two biological replicates.

[3] = Circular dichroism spectroscopy and thermal denaturation; assay type: physicochemical; conditions: 50 μM peptide in deionized water, 190–260 nm, room temperature
Protocol: Circular dichroism spectroscopy experiments were performed on a Jasco J-170 using a quartz cuvette (path length: 0.1 cm). Peptides were dissolved to 50 μM in deionized water and CD measurements were recorded at one nm increments between 190 and 260 nm, at room temperature. Thermal denaturation experiments were performed by recording CD absorbance at 222 nm at one-degree increments from 10 to 90 °C using a thermostat-controlled cuvette chamber. Raw denaturation data were fit to sigmoidal curves with Prizm 5 software, and the half-maximal temperature was reported as the peptide T m.

His6-RAB25 (1–180) [4] = biological target: T4, His6-RAB25 (1–180); assay: AlphaScreen or HTRF; competition: soluble peptide or protein at varied concentration with biotin-RFP14 and H6-RAB25 (0.2 μM each); streptavidin donor and Ni2+-NTA acceptor beads; FP buffer with 0.1% BSA; room temperature; conditions: both partners purified
His6-RAB25 (1–180) [5] = biological target: T5, His6-RAB25 (1–180); assay: competition with bio-RFP14 (ALPHAscreen)
[6] = biological target: T6, GST-RAB11a (1–173, Q70L mutant); assay: fluorescence polarisation; FITC-peptide 25 nM with threefold dilutions of GST-RAB protein; 20 mM Tris pH 8.0, 150 mM NaCl, 5 mM MgCl2, 2 mM DTT, 10 μM GTP, 2% glycerol; room temperature, 30 min; apparent Kd; conditions: both partners purified

| Molecule | Kd (RAB25) | binding to RAB25 (in words) (RAB25) | binding to RAB11a (in words) [2] | CD spectrum, secondary structure [3] | other results |
| --- | --- | --- | --- | --- | --- |
| CC[C@H](C)[C@H](NC(=O)[C@H](CCCNC(=N)N)NC(=O)[C@H](C)NC(=O)[C@H](C)NC(=O)[C@]1(C)CCCC=CCCC[C@](C)(NC(=O)[C@H](CC(N)=O)NC(=O)[C@H](CCC(N)=O)NC(=O)[C@H](CC(C)C)NC(=O)[C@H](CCCNC(=N)N)NC(=O)[C@H](Cc2ccccc2)NC(=O)[C@H](CC(N)=O)NC(=O)[C@@H](NC(=O)[C@H](CCCNC(=N)N)NC(=O)CCNC(=O)[C@@H](N)Cc2c[nH]c3ccccc23)[C@@H](C)CC)C(=O)N[C@@H]([C@@H](C)CC)C(=O)N[C@@H](CC(=O)O)C(=O)N[C@@H](CCCNC(=N)N)C(=O)N1)C(=O)N[C@@H](C)C(=O)N[C@@H](CCC(=O)O)C(=O)N[C@H](C(=O)N[C@@H](CC(N)=O)C(=O)N1CCC[C@H]1C(=O)N[C@@H](CO)C(=O)N[C@H](C(=O)N[C@@H](CC(C)C)C(=O)N[C@@H](CCC(=O)O)C(=O)N[C@H](C(=O)N[C@@H](CCCCN)C(N)=O)C(C)C)[C@@H](C)CC)[C@@H](C)O [RFP31] (H-W[βAla]RINFRLQN[S5]IDR[S5]AARIAETNPSILEVK-NH2; staple 11-15) | > 5 µM | – | – | – | IC50 [1]: 3.3 µM; Kd ([2]; 10 nM FITC-ligand, GST-RAB11a (1–173, Q70L), FP buffer pH 8.0 with 10 μM GTP, mean with 95% C.I., triplicate, read-out: apparent Kd (95% C.I.) RAB11a): > 5 µM |
| CCCC[C@@H]1NC(=O)[C@H](C(C)C)NC(=O)[C@@](C)(NC(=O)[C@@H](NC(=O)[C@H](CC(C)C)NC(=O)[C@H](CC(C)C)NC(=O)[C@H](CCCNC(=N)N)NC(=O)[C@H](CC(=O)O)NC(=O)[C@@H](NC(=O)[C@H](Cc2ccc(O)cc2)NC(=O)[C@H](CC(N)=O)NC(=O)[C@H](CCC(=O)O)NC(=O)[C@H](CC(C)C)NC(=O)[C@H](CCC(=O)O)NC(=O)[C@H](CCCNC(=N)N)NC(=O)[C@@H](NC(=O)[C@H](CCC(N)=O)NC(=O)[C@H](CCCNC(=N)N)NC(=O)CCNC(=O)[C@@H](N)Cc2c[nH]c3ccccc23)C(C)C)[C@@H](C)CC)C(C)C)CCCC=CCCC[C@@](C)(C(=O)N[C@H](C(=O)N2CCC[C@H]2C(=O)N[C@@H](CC(N)=O)C(=O)N[C@H](C(=O)N[C@@H](CC(C)C)C(=O)N[C@@H](CCCNC(=N)N)C(=O)N[C@H](C(=O)N2CCC[C@H]2C(=O)N[C@@H](CCCNC(=N)N)C(N)=O)[C@@H](C)CC)[C@@H](C)CC)[C@@H](C)O)NC(=O)[C@H](CCC(=O)O)NC1=O [RFP14] (H-W[βAla]RQVRELENYIDRLLV[S5]V[Nle]E[S5]TPNILRIPR-NH2; staple 18-22) | 0.04 µM | – | – | – | cellular uptake and distribution (MCF7 cells): significant cellular uptake and distribution throughout the cytosol and nucleus; cellular uptake and distribution (MCF7 cells; listed as FITC-RFP14): comparable cellular uptake |
| KQEEINFRLQDYIDRIIVAIMETNPSILEVK-NH2 (C-terminus assumed) [RFP3] | – | micromolar affinities | micromolar affinities | β-sheet | – |
| RFP4: unmodified FIP4 peptide ({FITC-PEG}-EQEEINFRLRQYMDKIILAILDHNPSILEIKH; reading uncertain) | – | micromolar affinities | micromolar affinities | partially disordered peptide folds | – |
| GST-FIP3 (649–756) (domain or fragment, UniProt O75154 649-756, looked up, Rab11-FIP3 (Class-II FIP), residues 649-756; vector pGEX 6P-1; no cleavage of GST is described; also called FIP3 protein (residues 649–756); source: BL21 cells, purified (glutathione sepharose, Superdex 75 gel filtration)) MGLQEYHSRARESELEQEVRRLKQDNRNLKEQNEELNGQIITLSIQGAKSLFSTAFSESLAAEISSVSRDELMEAIQKQEEINFRLQDYIDRIIVAIMETNPSILEVK | – | – | – | – | binding result (His6-RAB25 (1–180) [4]): binds; IC50 (His6-RAB25 (1–180) [5]): > 10 µM |
| {FITC-monoethylene glycol}-KQEEINFRLQDYIDRIIVAI[Met(O)]ETNPSILEVK [RFP5] | – | – | – | – | fold lower affinity than the unoxidised peptide [6]: ~5 fold |
